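How tested: cells in 96-well plates exposed to compound for 48 hours at five concentrations. GI50 = concentration required for 50% inhibition of growth.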 Active and inactive are the calls of the source. Rule as the data show it: active = GI50 up to about 1.1 µM and inactive = higher.
Key:
Experiment in all cases: NCI anticancer screen, dose series, 48 h
SN12C = system: SN12C
SNB-75 = system: SNB-75
NCI-H23 = system: NCI-H23
BT-549 = system: BT-549
TK-10 = system: TK-10
NCI/ADR-RES = system: NCI/ADR-RES
CCRF-CEM = system: CCRF-CEM
OVCAR-4 = system: OVCAR-4
T47D = system: T47D
OVCAR-5 = system: OVCAR-5
NCI-H460 = system: NCI-H460
786-0 = system: 786-0
MOLT-4 = system: MOLT-4
Malme-3M = system: Malme-3M
MCF7 = system: MCF7
HCC 2998 = system: HCC 2998
HL-60 = system: HL-60
NCI-H522 = system: NCI-H522
SF-539 = system: SF-539
A498 = system: A498

Measured: GI50

Clc1ccc(-c2c3nc(c(-c4ccc(Cl)cc4)c4ccc([nH]4)c(-c4ccc(Cl)cc4)c4nc(c(-c5ccc(Cl)cc5)c5ccc2[nH]5)C=C4)C=C3)cc1
inactive: SN12C > 100 µM | SNB-75 20.8 µM | NCI-H23 > 100 µM | BT-549 > 100 µM | TK-10 > 100 µM | NCI/ADR-RES > 100 µM | CCRF-CEM > 100 µM | OVCAR-4 > 100 µM | T47D > 100 µM | OVCAR-5 > 100 µM | NCI-H460 > 100 µM | 786-0 > 100 µM | MOLT-4 > 100 µM | Malme-3M 70.8 µM | MCF7 > 100 µM | HCC 2998 > 100 µM | HL-60 > 100 µM | NCI-H522 > 100 µM | SF-539 > 100 µM

C=C(C)C1CC(=O)C(C)=C(O)C1 (configuration not stated)
inactive: SN12C > 100 µM | SNB-75 > 100 µM | NCI-H23 > 100 µM | BT-549 > 100 µM | TK-10 > 100 µM | NCI/ADR-RES > 100 µM | CCRF-CEM > 100 µM | OVCAR-4 > 100 µM | T47D > 100 µM | OVCAR-5 > 100 µM | NCI-H460 > 100 µM | 786-0 > 100 µM | MOLT-4 > 100 µM | Malme-3M > 100 µM | MCF7 > 100 µM | HCC 2998 > 100 µM | HL-60 > 100 µM | NCI-H522 > 100 µM | SF-539 > 100 µM

Fc1cc(-c2cc(-c3ccccc3)n[nH]2)c(Cl)cc1Cl
inactive: SN12C > 100 µM | SNB-75 > 100 µM | NCI-H23 > 100 µM | BT-549 > 100 µM | TK-10 > 100 µM | NCI/ADR-RES > 100 µM | CCRF-CEM 82.2 µM | OVCAR-4 > 100 µM | T47D > 100 µM | OVCAR-5 > 100 µM | NCI-H460 > 100 µM | 786-0 > 100 µM | MOLT-4 16.9 µM | Malme-3M > 100 µM | HL-60 28.9 µM | NCI-H522 > 100 µM | SF-539 23 µM

NS(=O)(=O)c1ccc(NNC(=O)c2cccc3c(=O)c4ccccc4[nH]c23)cc1
inactive: SN12C > 100 µM | SNB-75 > 100 µM | NCI-H23 > 100 µM | BT-549 62.4 µM | TK-10 > 100 µM | NCI/ADR-RES > 100 µM | CCRF-CEM 46.1 µM | OVCAR-4 61.8 µM | T47D 48.4 µM | OVCAR-5 > 100 µM | NCI-H460 87.7 µM | 786-0 > 100 µM | MOLT-4 42.2 µM | Malme-3M 78.3 µM | MCF7 34 µM | HCC 2998 > 100 µM | HL-60 35 µM | NCI-H522 41.4 µM | SF-539 > 100 µM

O=C1NCC2(CCN(Cc3ccccc3)CC2)N1
inactive: SN12C > 100 µM | SNB-75 > 100 µM | NCI-H23 > 100 µM | BT-549 > 100 µM | TK-10 > 100 µM | NCI/ADR-RES > 100 µM | CCRF-CEM > 100 µM | OVCAR-4 > 100 µM | T47D > 100 µM | OVCAR-5 > 100 µM | NCI-H460 > 100 µM | 786-0 > 100 µM | MOLT-4 > 100 µM | Malme-3M > 100 µM | MCF7 > 100 µM | HCC 2998 > 100 µM | HL-60 > 100 µM | NCI-H522 > 100 µM | SF-539 > 100 µM

COc1ccc(N2C(=O)C3c4[nH]c5ccccc5c4C4CCC(c5ccccc5)CC4C3C2=O)cc1 (configuration not stated)
inactive: SN12C 28.5 µM | SNB-75 6.04 µM | NCI-H23 19.8 µM | BT-549 31.4 µM | TK-10 12.8 µM | NCI/ADR-RES > 34.2 µM | CCRF-CEM 6 µM | OVCAR-4 8.87 µM | T47D > 66.4 µM | OVCAR-5 45.1 µM | NCI-H460 10.3 µM | 786-0 7.76 µM | MOLT-4 26.6 µM | A498 29 µM | Malme-3M 3.38 µM | MCF7 39 µM | NCI-H522 10.2 µM | SF-539 1.48 µM

O=C1OC(C2Cc3ccccc3C2=O)c2ccccc21 (configuration not stated)
inactive: SN12C > 100 µM | SNB-75 > 100 µM | NCI-H23 > 100 µM | BT-549 > 100 µM | TK-10 > 100 µM | NCI/ADR-RES > 100 µM | CCRF-CEM > 100 µM | OVCAR-4 > 100 µM | T47D > 100 µM | OVCAR-5 > 100 µM | NCI-H460 > 100 µM | 786-0 > 100 µM | MOLT-4 > 100 µM | Malme-3M > 100 µM | MCF7 > 100 µM | HCC 2998 > 100 µM | HL-60 > 100 µM | NCI-H522 > 100 µM | SF-539 > 100 µM

CC(C1CCCC1=O)C1CCCC1=O (configuration not stated)
inactive: SN12C > 100 µM | SNB-75 > 100 µM | NCI-H23 > 100 µM | BT-549 > 100 µM | TK-10 > 100 µM | NCI/ADR-RES > 100 µM | CCRF-CEM > 100 µM | OVCAR-4 > 100 µM | T47D > 100 µM | OVCAR-5 > 100 µM | NCI-H460 > 100 µM | 786-0 > 100 µM | MOLT-4 > 100 µM | Malme-3M > 100 µM | MCF7 > 100 µM | HCC 2998 > 100 µM | HL-60 > 100 µM | NCI-H522 > 100 µM | SF-539 > 100 µM

O=C(c1cccs1)N(C(=O)N1CCC(c2ccccc2)CC1)c1ccccc1
inactive: SN12C 62.2 µM | NCI-H23 40.6 µM | BT-549 27 µM | TK-10 67 µM | NCI/ADR-RES 24.8 µM | CCRF-CEM 95.5 µM | T47D 26.1 µM | OVCAR-5 > 100 µM | NCI-H460 43.7 µM | 786-0 > 100 µM | MOLT-4 34.8 µM | A498 51.4 µM | Malme-3M 15.8 µM | MCF7 35.5 µM | HL-60 28.8 µM | SF-539 > 100 µM

COc1cc(-c2coc3c(OC)c(OC4OC(CO)C(O)C(O)C4O)c(OC)cc3c2=O)cc(OC)c1C (configuration not stated)
inactive: SN12C 4.07 µM | SNB-75 6.22 µM | NCI-H23 3.98 µM | BT-549 4.04 µM | TK-10 18.4 µM | NCI/ADR-RES 7.36 µM | CCRF-CEM 3.75 µM | OVCAR-4 13.1 µM | T47D 9.14 µM | OVCAR-5 14.2 µM | NCI-H460 8.75 µM | 786-0 1.28 µM | MOLT-4 5.9 µM | Malme-3M 15.3 µM | MCF7 3.66 µM | HCC 2998 3.89 µM | HL-60 4.53 µM | NCI-H522 3.36 µM | SF-539 3.69 µM

O=S(=O)(O)c1ccc2c(/N=N/c3ccc(/N=N/c4ccccc4)cc3)c(O)c(S(=O)(=O)O)cc2c1
inactive: SN12C > 100 µM | NCI-H23 > 100 µM | BT-549 > 100 µM | TK-10 > 100 µM | NCI/ADR-RES > 100 µM | CCRF-CEM > 100 µM | OVCAR-4 > 100 µM | T47D > 100 µM | OVCAR-5 > 100 µM | NCI-H460 > 100 µM | 786-0 > 100 µM | MOLT-4 > 100 µM | Malme-3M > 100 µM | MCF7 > 100 µM | HCC 2998 > 100 µM | HL-60 > 100 µM | NCI-H522 > 100 µM | SF-539 > 100 µM

— ChEMBL document CHEMBL1201862, “PubChem BioAssay data set” (2004)
